Measurements as given in ChEMBL document CHEMBL1150707, “Isolation, structure, and synthesis of combretastatins A-1 and B-1, potent new inhibitors of microtubule assembly, derived from Combretum caffrum” (1987).
Converted amounts (≈) assume the structure as drawn. The source made the active and inactive calls. No cut-off for these calls is given here.

How the values were obtained:
P388 [1] = assay: In vivo cytotoxicity against mouse P388 cells; type: functional
[2] = Inhibition of microtubule assembly by turbidimetry
[3] = Displacement of [3H]colchicine from tubulin after 10 mins relative to control; parameters: concentration or dose not given beside the values
P388 [4] = assay: In vivo cytotoxicity against mouse P388 cells assessed as increase in life extension at 2.75 to 11 mg/kg; type: functional; conditions: dose mg/kg 2.75-11

| Compound | ED50 (P388 [1]) | ID50 [2] [µM] | Activity [3] [%] | Activity (P388 [4]) [%] |
| --- | --- | --- | --- | --- |
| COc1cc(/C=C\c2ccc(OC)c(O[Si](C)(C)C(C)(C)C)c2O[Si](C)(C)C(C)(C)C)cc(OC)c1OC | inactive |  |  |  |
| COc1cc2c(c(OC)c1OC)-c1ccc(OC)c(=O)cc1[C@@H](NC(C)=O)CC2 |  | 6 |  |  |
| COc1ccc(CCc2cc(OC)c(OC)c(OC)c2)c(O)c1O |  | 3 | 13 |  |
| COc1ccc(/C=C\c2cc(OC)c(OC)c(OC)c2)c(O)c1O [COMBRETASTATIN A-1] | 0.99 mg/L (≈ 2.98 µM) | 2 | 2.2 | 26 |
| COc1cc([C@@H]2c3cc4c(cc3[C@H](O)[C@H]3COC(=O)[C@H]23)OCO4)cc(OC)c1OC |  | 3 | 13 |  |
| COc1cc(/C=C/c2ccc(OC)c(OC(C)=O)c2OC(C)=O)cc(OC)c1OC | 12 mg/L (≈ 28.8 µM) |  |  |  |
| COc1cc2c(c(OC)c1OC)-c1cc3c(cc1[C@@H](OC(C)=O)C1COC(=O)[C@H]1C2)OCO3 (some centres not stated) |  | 6 | 49 |  |
| COc1ccc(C[C@@H](O)c2cc(OC)c(OC)c(OC)c2)cc1O |  | 11 | 34 |  |
| COc1cc(/C=C/c2ccc(OC)c(O[Si](C)(C)C(C)(C)C)c2O[Si](C)(C)C(C)(C)C)cc(OC)c1OC | inactive |  |  |  |
| COc1cc(/C=C\c2ccc(OC)c(OC(C)=O)c2OC(C)=O)cc(OC)c1OC | 2.7 mg/L (≈ 6.48 µM) |  |  |  |
